Where a SMILES comes first, the peptide text is derived from it. Where no end group is shown, it is not given here. [ ]: non-standard residue; d: D form. AllylGly = C=CC[C@H](N)C(=O)O
Columns and labels:
Assay type in all cases: cell-based
IEC6 cells = assay: Real-Time Cell Electronic Sensing (RT-CES, ACEA) assay of cell morphology change; set-up: key: + indicates an enhancement of the permeability of the tight junctions were observed; − indicates no enhancement of permeability was observed; details: peptide at 5 mg/mL
Excerpt: Agonists of tight junctions can be identified by their ability to induce changes in morphology of cells in a monolayer of cells that comprise tight junctions. Such changes in the morphology of IEC6 cells may be measured using a Real-Time Cell Electronic Sensing protocol as described below.
Tight junction agonists can be identified using the following method an used in peptide conjugates of the invention:
Materials: cells: IEC6 passage 30-50, medium: DMEM 10% no calcium no magnesium, foetal bovine serum 0.1 unit per ml bovine insulin, buffers: phosphate buffered saline (PBS) no calcium no magnesium, trypsin: 0.25% porcine trypsin in HBSS no calcium no magnesium, flasks: 100×20 mm Tissue culture dish Falcon, plates: 16× E-Plate, machine: RT-CES™ 16× system (ACEA Biosciences, Inc., San Diego, Calif.)
Wash a 75 cm^2 flask of confluent IEC6 cells twice with 25 ml of PBS.
Add 2.5 ml of trypsin to the flask and place back in the incubator at 37° C.
Wash cells from the surface of the flask with 10 ml of serum containing media to quench the trypsin.
Pellet the cells by centrifugation at 1500 rpm for 5 minutes aspirate the media.
Resuspend the cell pellet in 10 ml of serum free media and centrifuge at 1500 rpm for 5 minutes aspirate the media and repeat for a total of 5 washes.
Take 100 μl of cells and mix with 100 μl of trypan blue.
Count the cells four times and use the average cell concentration.
Dilute the cells to 1×10^6 per ml in serum free media.
Add 100 μl of serum free media to each well of the ACEA plates to be used.
Insert the ACEA plate and press scan.
Run step 1 of the program to measure background.
Add 50 μl of cells to each well of the ACEA plate tap each slide of the plate 10 times and place the cells on the bench for 15 minutes to allow the cells to settle.
Insert the ACEA plate and run the scan step to check connections and run step 2-1 and 2-2 overnight.
Step 2-1 sample every 2 minutes 30 times.
Step 2-2 sample every 15 minutes 100 times.
The cell indices should be between 6-10 after the overnight run and should have reached a plateau.
Remove 100 μl of media carefully from each well.
Make up the compounds to be tested so that 50 μl contains 2× the desired final concentration.
Add 50 μl of compounds to the designated wells.
Scan the plate to check connections.
Step 3-1 sample every 2 minutes 30 times.
Step 3-2 sample every 15 minutes 100 times.

CaCo2 monolayers [1] = assay: Epithelial flux of Lucifer Yellow through cell monolayer; set-up: key to Enhanced LY permeability: + indicates an enhancement of the permeability of the tight junctions were observed; − indicates no enhancement of permeability was observed; details: for Enhanced LY permeability: Lucifer Yellow flux, Caco-2 monolayer
How it was run: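 Caco-2 cells (passage 40-60) grown 21-28 days on Transwell filters, equilibrated 30 min at 37 °C in HBSS-HEPES pH 7.4; Lucifer Yellow with test compound applied apically, n=3 filters. Basolateral samples at 60, 120, 180 min read by fluorescence at 485/535 nm against standard curve; TEER also measured.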

CaCo2 monolayers [2] = assay: Trans Epithelial Electric Resistance (TEER) across cell monolayer; set-up: key to Reduced TEER: + indicates an enhancement of the permeability of the tight junctions were observed; − indicates no enhancement of permeability was observed; details: for Reduced TEER: Caco-2 monolayer
How it was run: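 Caco-2 cells, passage 40-60, grown 21-28 days on Transwell filters, equilibrated 30 min at 37° C in MHBSS pH 7.4. Test compound with Lucifer Yellow applied apically (n=3), incubated at 37° C with 50 RPM shaking; TEER measured at baseline and at 30, 60, 120 and 180 min.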

Compound | ACEA 5 mg/mL (IEC6 cells) | Enhanced LY permeability (CaCo2 monolayers [1]) | Reduced TEER (CaCo2 monolayers [2]) | enhancement of Lucifer Yellow permeability through CaCo2 monolayers (CaCo2 monolayers [1]; compared to vehicle alone) [fold] | decrease in TEER across CaCo2 monolayers (CaCo2 monolayers [2]; compared to vehicle alone) [fold]
2 (ACIGRL; not fully specified; printed as Ala-Cys-Ile-Gly-Arg-Leu) [compound 2] | + | − | − |  | 
3 (FAIGRL; not fully specified; printed as Phe-Ala-Ile-Gly-Arg-Leu) [compound 3] | − | − | − |  | 
5 (FCIARL; not fully specified; printed as Phe-Cys-Ile-Ala-Arg-Leu) [compound 5] | − | − | − |  | 
6 (FCIGAL; not fully specified; printed as Phe-Cys-Ile-Gly-Ala-Leu) [compound 6] | + | − | − |  | 
7 (FCIGRA; not fully specified; printed as Phe-Cys-Ile-Gly-Arg-Ala) [compound 7] | + | + | + |  | 
8 (CIGRL; not fully specified; printed as Cys-Ile-Gly-Arg-Leu) [compound 8] | − | − | − |  | 
10 (FCIGR; also: peptide conjugate) [compound 10] | + | + | + |  | 
11 (FCIG; also: peptide conjugate) [compound 11] | + |  | − |  | 
13 (F[dC]IGRL; also: peptide conjugate) [compound 13] | + | + | + |  | 
14 (FC[dI]GRL; also: peptide conjugate) [compound 14] | − | + | + |  | 
15 (FCIG[dR]L; also: peptide conjugate) [compound 15] | + | − | − |  | 
16 (FCIGR[dL]; also: peptide conjugate) [compound 16] | − | − | − |  | 
17 ([dL][dR]G[dI][dC][dF]; also: peptide conjugate) [compound 17] | − | + | + |  | 
18 ([dL][dR]G[dI][dC]F; not fully specified; printed as D-Leu-D-Arg-Gly-D-Ile-D-Cys-Phe) [compound 18] | + | + | + |  | 
19 ([dL][dR]G[dI]C[dF]; not fully specified; printed as D-Leu-D-Arg-Gly-D-Ile-Cys-D-Phe) [compound 19] | + | + | + |  | 
22 (L[dR]G[dI][dC][dF]; not fully specified; printed as Leu-D-Arg-Gly-D-Ile-D-Cys-D-Phe) [compound 22] | − | + | + |  | 

Compound | ACEA 5 mg/mL (IEC6 cells) | Enhanced LY permeability (CaCo2 monolayers [1]) | Reduced TEER (CaCo2 monolayers [2]) | enhancement of Lucifer Yellow permeability through CaCo2 monolayers (CaCo2 monolayers [1]; compared to vehicle alone) [fold] | decrease in TEER across CaCo2 monolayers (CaCo2 monolayers [2]; compared to vehicle alone) [fold]
23 (LRGICF; not fully specified; printed as Leu-Arg-Gly-Ile-Cys-Phe) [compound 23] | − | + | + |  | 
24 ([dL]RGICF; not fully specified; printed as D-Leu-Arg-Gly-Ile-Cys-Phe) [compound 24] | + | − | − |  | 
25 (L[dR]GICF; not fully specified; printed as Leu-D-Arg-Gly-Ile-Cys-Phe) [compound 25] | + | − | − |  | 
29 ([dF][dC][dI]G[dR][dL]; not fully specified; printed as D-Phe-D-Cys-D-Ile-Gly-D-Arg-D-Leu) [compound 29] | − | + | + |  | 
32 ([dF][dC]IG[dR][dL]; not fully specified; printed as D-Phe-D-Cys-Ile-Gly-D-Arg-D-Leu) [compound 32] | − | + | + |  | 
33 ([dF]C[dI]G[dR][dL]; not fully specified; printed as D-Phe-Cys-D-Ile-Gly-D-Arg-D-Leu) [compound 33] | + | − | − |  | 
207 (F[AllylGly]SGRL-NH2; N-terminus assumed; SMILES C=CC[C@H](NC(=O)[C@@H](N)Cc1ccccc1)C(=O)N[C@@H](CO)C(=O)NCC(=O)N[C@@H](CCCNC(=N)N)C(=O)N[C@@H](CC(C)C)C(N)=O) [compound 207] |  | + | + |  | 
208 (F[AllylGly]FGRL-NH2; N-terminus assumed; SMILES C=CC[C@H](NC(=O)[C@@H](N)Cc1ccccc1)C(=O)N[C@@H](Cc1ccccc1)C(=O)NCC(=O)N[C@@H](CCCNC(=N)N)C(=O)N[C@@H](CC(C)C)C(N)=O) [compound 208] |  | + | + |  | 
209 (F[AllylGly]VGRL-NH2; N-terminus assumed; SMILES C=CC[C@H](NC(=O)[C@@H](N)Cc1ccccc1)C(=O)N[C@H](C(=O)NCC(=O)N[C@@H](CCCNC(=N)N)C(=O)N[C@@H](CC(C)C)C(N)=O)C(C)C) [compound 209] |  | − | − |  | 
210 (F[AllylGly]GGRL-NH2; N-terminus assumed; SMILES C=CC[C@H](NC(=O)[C@@H](N)Cc1ccccc1)C(=O)NCC(=O)NCC(=O)N[C@@H](CCCNC(=N)N)C(=O)N[C@@H](CC(C)C)C(N)=O) [compound 210] |  | + | + |  | 
211 (F[AllylGly]AGRL-NH2; N-terminus assumed; SMILES C=CC[C@H](NC(=O)[C@@H](N)Cc1ccccc1)C(=O)N[C@@H](C)C(=O)NCC(=O)N[C@@H](CCCNC(=N)N)C(=O)N[C@@H](CC(C)C)C(N)=O) [compound 211] |  | + | + |  | 
220 (F[AllylGly]ITRL-NH2; N-terminus assumed; SMILES C=CC[C@H](NC(=O)[C@@H](N)Cc1ccccc1)C(=O)N[C@H](C(=O)N[C@H](C(=O)N[C@@H](CCCNC(=N)N)C(=O)N[C@@H](CC(C)C)C(N)=O)[C@@H](C)O)[C@@H](C)CC) [compound 220] |  | − | − |  | 
223 (F[AllylGly]IARL-NH2; N-terminus assumed; SMILES C=CC[C@H](NC(=O)[C@@H](N)Cc1ccccc1)C(=O)N[C@H](C(=O)N[C@@H](C)C(=O)N[C@@H](CCCNC(=N)N)C(=O)N[C@@H](CC(C)C)C(N)=O)[C@@H](C)CC) [compound 223] |  | + | + |  | 
224 (F[AllylGly]IPRL-NH2; N-terminus assumed; SMILES C=CC[C@H](NC(=O)[C@@H](N)Cc1ccccc1)C(=O)N[C@H](C(=O)N1CCC[C@H]1C(=O)N[C@@H](CCCNC(=N)N)C(=O)N[C@@H](CC(C)C)C(N)=O)[C@@H](C)CC) [compound 224] |  | − | − |  | 
CC[C@H](C)[C@H](NC(=O)[C@H](CS)NC(=O)[C@@H](N)Cc1ccccc1)C(=O)NCC(=O)N[C@@H](CCCNC(=N)N)C(=O)N[C@@H](CC(C)C)C(=O)O [SEQ ID NO: 1, Phe-Cys-Ile-Gly-Arg-Leu] (H-FCIGRL-OH; N-terminus and C-terminus assumed) |  |  |  | 51 | 16
